Laboratory results taken from patent US20040091935A1, “Strains of Mycoplasma hyorhinis as causative agent for systemic sclerosis” (priority 2002, published 2004).
Entries after “also recorded” stand apart in the source; their conditions may differ. Starred links: 1 amine or outer side, 2 acyl side, 3 side chain; linkers in the order of their positions; H or OH if unused. Positions of bridges follow the written chain, without caps; N, C: chain ends. Non-standard residues stand in square brackets, D forms with d. Residues, ends and D or L forms follow the SMILES beside them. Chains are numbered I, II in the order given. Actinocin(9to1) = Cc1c2oc3c(C)ccc(C(=O)[*:1])c3nc-2c(C(=O)[*:2])c(N)c1=O; NMeV = CN[C@H](C(=O)O)C(C)C; Sar = CNCC(=O)O

System: Mycoplasma hyorhinis
Test: Plaque assay of the infectious agent on Vero cell monolayers with antibiotics
Type: cell-based
Conditions: ciprofloxacin 0.5 mg/ml, doxicycline 1 mg/ml, antibiotic added for 24 hours or 7 days, assay sensitivity 10 pfu/ml, FIG. 12

| SMILES | Plaque formation induced by the infectious agent |
| --- | --- |
| C[C@H]1c2cccc(O)c2C(O)=C2C(=O)[C@]3(O)C(O)=C(C(N)=O)C(=O)[C@@H](N(C)C)[C@@H]3[C@@H](O)[C@@H]21 [doxicyclin] | prevented plaque formation; also recorded: inhibited |
| Cc1c2oc3c(C)ccc(C(=O)N[C@@H]4C(=O)N[C@H](C(C)C)C(=O)N5CCC[C@H]5C(=O)N(C)CC(=O)N(C)[C@@H](C(C)C)C(=O)O[C@@H]4C)c3nc-2c(C(=O)N[C@@H]2C(=O)N[C@H](C(C)C)C(=O)N3CCC[C@H]3C(=O)N(C)CC(=O)N(C)[C@@H](C(C)C)C(=O)O[C@@H]2C)c(N)c1=O [actinomycin D] (I: T[dV]P[Sar][NMeV] / II: T[dV]P[Sar][NMeV]; ester I:1-I:C, II:1-II:C; linker I:N-II:N via Actinocin(9to1)) | prevented plaque formation |
